Source: paper PMC2099433, “The binding site for neohesperidin dihydrochalcone at the human sweet taste receptor” (BMC Structural Biology, 2007)

How the values were obtained:
[1] = target: T1, human TAS1R3 and rat Tas1r2 (Homo sapiens, UniProt Q7RTX0); assay: Calcium response, interspecies subunit combination; type: cell-based; conditions: 1 mM NHDC
T1 construct: expressed in transfected cells; host or cells: HEK293T cells stably expressing G16Gust44
Description: (§1) In order to elucidate the putative binding site for NHDC, we cotransfected mixtures of plasmid DNAs for the rat and human TAS1R2 and TAS1R3 receptor subunits in HEK293T cells stably expressing the chimeric G-protein G16Gust44 and measured cellular calcium responses by fluorometry following bath application of various sweet tasting compounds.
(§2) Figure 1 Chemical structure and calcium responses elicited by neohesperidin dihydrochalcone. (A) Structure of neohesperidin dihydrochalcone. Numbers denote carbon atom positions. […]
(§3) The cDNAs for TAS1Rs tagged at the C-terminus with the herpes simplex virus glycoprotein D (HSV) were transiently transfected into HEK293T cells stably expressing the chimeric G-protein subunit G16Gust44 [44] using Lipofectamine 2000 (Invitrogen, Carlsbad, CA) according to the manufacturer's protocol. […] We monitored calcium mobilization following receptor stimulation with sweet tastants by an automated fluorometric imaging plate reader (FLIPR, Molecular Devices, Sunnyvale, CA). […] The obtained calcium signals were corrected for the response of mock transfected cells and normalized to the fluorescence of cells prior to the application of the stimulus using ΔF/F = (F-F0)/F0. Concentration-response curves and EC50 and IC50 values were calculated in SigmaPlot by nonlinear regression using the function f = ((a-d)/(1+(x/EC50)^nH)+d) and f = (a-b)/[1+(x/IC50)^nH]+b, respectively.

[2] = target: T2, rodent sweet taste receptor (Rattus norvegicus, UniProt Q923K1); assay: Calcium response, rodent sweet taste receptor; type: cell-based
T2 construct: expressed in transfected cells; host or cells: HEK293T cells stably expressing G16Gust44
Description: as §1, §2, §3

[3] = target: T3, rat Tas1r3 and human TAS1R2 (opposite combination) (Rattus norvegicus, UniProt Q923K1); assay: Calcium response, opposite interspecies subunit combination; type: cell-based; conditions: 1 mM NHDC
T3 construct: expressed in transfected cells; host or cells: HEK293T cells stably expressing G16Gust44
Description: as §1, §2, §3

[4] = test system: rat Tas1r3 with heptahelical domain of human TAS1R3, coexpressed with rat Tas1r2; assay: Calcium response, chimeric receptor; type: cell-based; conditions: 1 mM NHDC
Description: as §1, with “compounds. […].” for “compounds.”
(§4) Figure 1 Chemical structure and calcium responses elicited by neohesperidin dihydrochalcone. (A) Structure of neohesperidin dihydrochalcone. Numbers denote carbon atom positions. (B) Representative calcium traces elicited upon stimulation with different concentrations of neohesperidin dihydrochalcone (NHDC) in HEK293T-G16Gust44 cells cotransfected with DNA for hTAS1R2/hTAS1R3. […]
as §3, with “Concentration-response curves and EC50 and IC50 values were calculated in SigmaPlot by nonlinear regression using the function f = ((a-d)/(1+(x/EC50)^nH)+d) and f = (a-b)/[1+(x/IC50)^nH]+b, respectively.” left out

[5] = test system: receptors that contain the entire rat Tas1r3 or its heptahelical domain; assay: Calcium response, receptors and chimeras with rat Tas1r3 heptahelical domain; type: cell-based, human; conditions: 1 mM NHDC
Description: as §1, with “compounds. […].” for “compounds.”
as §4
as §3, with “Concentration-response curves and EC50 and IC50 values were calculated in SigmaPlot by nonlinear regression using the function f = ((a-d)/(1+(x/EC50)^nH)+d) and f = (a-b)/[1+(x/IC50)^nH]+b, respectively.” left out

T2 sequence (Q923K1 21-858): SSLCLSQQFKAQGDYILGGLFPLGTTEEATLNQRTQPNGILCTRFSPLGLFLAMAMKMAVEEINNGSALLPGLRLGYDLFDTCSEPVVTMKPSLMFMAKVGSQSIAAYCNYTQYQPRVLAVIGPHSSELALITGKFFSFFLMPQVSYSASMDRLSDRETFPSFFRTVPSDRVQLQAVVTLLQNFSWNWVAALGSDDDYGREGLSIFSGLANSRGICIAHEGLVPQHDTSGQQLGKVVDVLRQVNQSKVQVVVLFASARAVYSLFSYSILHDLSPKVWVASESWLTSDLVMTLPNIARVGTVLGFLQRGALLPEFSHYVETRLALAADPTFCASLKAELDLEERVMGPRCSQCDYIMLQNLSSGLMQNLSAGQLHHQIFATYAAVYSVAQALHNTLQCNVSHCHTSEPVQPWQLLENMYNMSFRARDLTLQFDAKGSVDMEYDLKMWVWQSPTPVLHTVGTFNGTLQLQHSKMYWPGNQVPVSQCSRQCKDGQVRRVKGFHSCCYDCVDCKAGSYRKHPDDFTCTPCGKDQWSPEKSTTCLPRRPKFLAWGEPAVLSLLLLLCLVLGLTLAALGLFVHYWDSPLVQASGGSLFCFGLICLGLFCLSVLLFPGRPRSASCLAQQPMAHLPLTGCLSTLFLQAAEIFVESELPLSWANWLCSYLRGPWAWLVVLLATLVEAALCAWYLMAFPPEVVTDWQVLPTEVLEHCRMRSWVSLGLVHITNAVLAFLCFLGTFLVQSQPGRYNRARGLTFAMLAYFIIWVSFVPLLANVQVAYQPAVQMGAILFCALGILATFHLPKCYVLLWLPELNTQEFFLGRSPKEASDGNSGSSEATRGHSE
T2 sequence (Q9Z0R7 20-843 partner): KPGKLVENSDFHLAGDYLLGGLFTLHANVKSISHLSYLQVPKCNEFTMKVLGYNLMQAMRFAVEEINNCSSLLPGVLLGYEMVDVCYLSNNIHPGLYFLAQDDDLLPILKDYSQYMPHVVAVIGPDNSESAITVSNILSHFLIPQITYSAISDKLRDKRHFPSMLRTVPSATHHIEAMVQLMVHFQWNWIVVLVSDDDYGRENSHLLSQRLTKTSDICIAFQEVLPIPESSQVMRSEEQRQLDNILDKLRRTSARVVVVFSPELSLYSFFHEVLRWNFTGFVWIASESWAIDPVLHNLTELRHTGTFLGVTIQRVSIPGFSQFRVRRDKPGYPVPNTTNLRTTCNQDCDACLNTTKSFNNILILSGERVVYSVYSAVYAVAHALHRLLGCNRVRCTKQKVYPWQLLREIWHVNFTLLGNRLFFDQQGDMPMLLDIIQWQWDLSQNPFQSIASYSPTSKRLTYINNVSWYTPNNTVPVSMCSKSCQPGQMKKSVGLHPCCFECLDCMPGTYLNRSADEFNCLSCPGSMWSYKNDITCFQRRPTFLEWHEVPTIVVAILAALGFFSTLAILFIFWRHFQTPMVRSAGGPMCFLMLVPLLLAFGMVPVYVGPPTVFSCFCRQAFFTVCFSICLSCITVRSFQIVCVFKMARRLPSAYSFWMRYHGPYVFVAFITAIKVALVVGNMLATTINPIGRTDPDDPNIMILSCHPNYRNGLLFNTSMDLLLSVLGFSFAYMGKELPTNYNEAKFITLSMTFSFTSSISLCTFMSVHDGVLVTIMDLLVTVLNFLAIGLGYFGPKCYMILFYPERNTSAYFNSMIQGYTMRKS
T3 sequence (Q923K1 21-858): as the sequence (Q923K1 21-858) above
T3 sequence (Q8TE23 20-839 partner): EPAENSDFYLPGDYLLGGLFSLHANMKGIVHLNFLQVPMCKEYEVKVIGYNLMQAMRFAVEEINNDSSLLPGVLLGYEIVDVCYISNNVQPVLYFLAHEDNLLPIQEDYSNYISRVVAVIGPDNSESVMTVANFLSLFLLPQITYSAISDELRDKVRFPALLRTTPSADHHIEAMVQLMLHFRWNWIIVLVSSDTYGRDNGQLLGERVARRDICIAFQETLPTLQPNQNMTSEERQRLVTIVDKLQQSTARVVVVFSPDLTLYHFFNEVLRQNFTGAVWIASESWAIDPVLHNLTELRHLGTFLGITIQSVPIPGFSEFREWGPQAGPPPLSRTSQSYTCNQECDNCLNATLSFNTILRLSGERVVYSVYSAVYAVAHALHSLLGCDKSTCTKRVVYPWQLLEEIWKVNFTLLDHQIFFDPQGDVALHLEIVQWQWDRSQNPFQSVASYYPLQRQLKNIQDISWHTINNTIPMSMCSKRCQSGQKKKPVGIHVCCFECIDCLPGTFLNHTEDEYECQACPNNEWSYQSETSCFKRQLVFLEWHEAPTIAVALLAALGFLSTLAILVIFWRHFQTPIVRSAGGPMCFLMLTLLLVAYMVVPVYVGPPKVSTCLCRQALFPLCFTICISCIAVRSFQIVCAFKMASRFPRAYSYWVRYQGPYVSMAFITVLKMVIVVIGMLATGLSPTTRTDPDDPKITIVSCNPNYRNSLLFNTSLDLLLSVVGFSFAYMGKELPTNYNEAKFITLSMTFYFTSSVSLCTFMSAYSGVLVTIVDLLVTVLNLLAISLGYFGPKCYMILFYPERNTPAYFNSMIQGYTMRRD
T1 sequence (Q7RTX0 21-852): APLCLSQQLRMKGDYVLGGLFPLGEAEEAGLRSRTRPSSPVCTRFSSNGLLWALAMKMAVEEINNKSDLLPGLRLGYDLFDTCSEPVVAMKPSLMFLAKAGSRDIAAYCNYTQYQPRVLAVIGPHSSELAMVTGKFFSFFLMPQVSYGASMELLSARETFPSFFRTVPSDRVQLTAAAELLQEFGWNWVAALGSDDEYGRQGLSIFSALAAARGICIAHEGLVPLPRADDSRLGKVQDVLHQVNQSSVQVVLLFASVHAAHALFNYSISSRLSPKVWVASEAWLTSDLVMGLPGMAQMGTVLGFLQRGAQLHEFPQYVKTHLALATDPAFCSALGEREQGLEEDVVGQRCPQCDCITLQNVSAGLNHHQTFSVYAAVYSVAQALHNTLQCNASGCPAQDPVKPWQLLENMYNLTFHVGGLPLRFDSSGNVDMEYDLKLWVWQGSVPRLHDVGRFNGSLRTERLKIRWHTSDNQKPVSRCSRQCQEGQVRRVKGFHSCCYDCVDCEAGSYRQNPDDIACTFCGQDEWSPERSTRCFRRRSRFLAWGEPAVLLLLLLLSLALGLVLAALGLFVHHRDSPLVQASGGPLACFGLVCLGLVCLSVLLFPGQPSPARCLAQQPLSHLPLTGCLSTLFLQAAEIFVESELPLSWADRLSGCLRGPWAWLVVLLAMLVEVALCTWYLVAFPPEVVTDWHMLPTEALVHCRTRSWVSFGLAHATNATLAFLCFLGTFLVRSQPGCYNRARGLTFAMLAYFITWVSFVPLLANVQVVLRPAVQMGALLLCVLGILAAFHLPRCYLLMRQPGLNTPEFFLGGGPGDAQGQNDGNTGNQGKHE
T1 sequence (Q9Z0R7 20-843 partner): as the sequence (Q9Z0R7 20-843 partner) above

SMILES: COc1ccc(CCC(=O)c2c(O)cc(O[C@@H]3O[C@H](CO)[C@@H](O)[C@H](O)[C@H]3O[C@@H]3O[C@@H](C)[C@H](O)[C@@H](O)[C@H]3O)cc2O)cc1O [NHDC, neohesperidin dihydrochalcone]
- calcium response [1]: elicited calcium responses
- receptor activation [2]: not the rodent sweet taste receptor
- calcium response [3]: did not
- calcium response [4]: sensitive for NHDC
- calcium response [5]: did not respond to NHDC
